This assay addresses T1, Interleukin-1 receptor-associated kinase 4 (Homo sapiens, UniProt Q9NWZ3).
T1 sequence (Q9NWZ3 whole entry): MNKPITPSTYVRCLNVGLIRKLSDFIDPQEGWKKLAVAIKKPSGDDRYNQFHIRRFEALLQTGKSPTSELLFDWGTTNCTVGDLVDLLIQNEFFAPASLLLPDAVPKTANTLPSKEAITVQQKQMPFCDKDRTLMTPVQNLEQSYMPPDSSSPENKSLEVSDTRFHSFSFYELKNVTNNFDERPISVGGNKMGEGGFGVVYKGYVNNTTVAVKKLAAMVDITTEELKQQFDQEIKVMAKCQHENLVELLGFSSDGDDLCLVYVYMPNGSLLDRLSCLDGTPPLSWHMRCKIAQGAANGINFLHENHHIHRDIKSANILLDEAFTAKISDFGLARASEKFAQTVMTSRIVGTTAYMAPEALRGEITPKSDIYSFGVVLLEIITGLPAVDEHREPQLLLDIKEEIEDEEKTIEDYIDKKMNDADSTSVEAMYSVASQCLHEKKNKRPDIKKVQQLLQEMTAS
As to the kind of experiment: IRAK4 ADP-Glo Assay. The method, then:
The ADP-Glo reagents were thawed at ambient temperature. The Kinase Detection Reagent was prepared by mixing kinase detection buffer with the lyophilized kinase detection substrate, and set aside.A stock volume of 5 Reaction Kinase Buffer was made with a final concentration of 100 mM MgCl2, 200 mM Tris-HCl, and 0.5 mg/ml of BSA, in distilled H2O with a final pH7.4. A 2 working stock volume of Reaction Kinase Buffer was made containing a final concentration of 100 μM DTT.The components of IRAK4 Enzyme were thawed on ice. Diluted IRAK4 in 1 Kinase Reaction Buffer (diluted from 2 buffer) was prepared at 5.0 ng/μl. […] Then diluted 1:5 in 2 Reaction Buffer in a 96 well plate. 1.0 μl was transferred to a 384 well plate in duplicate. […] 1 μl of 1 mg/ml stock solution of MBP substrate was added NOTE: MBP can be combined with ATP mix with equal volume and then added at 2 μl/well. Final reaction volume was 5 μl.The plate was centrifuged and the reaction mixture was incubated at room temperature for 60 minutes or at 30 C. for 30 minutes.The reaction was terminated and the remaining ATP was depleted by adding 5 μl of ADP-Glo Reagent. The 384-well plate was centrifuged and then the reaction mixture was incubated for another 40 minutes at ambient temperature.
(ADP-Glo turns the ADP formed in a reaction into a luminescent signal.)

In BindingDB's records for patent US20230391748 (Rigel Pharmaceuticals, 2023) one finds IC50 data, which are given here for two compounds.

Molecules are shown by their SMILES.

One may read the IC50 as the concentration at which inhibition is half-maximal. A high value points to lower potency. The compound `CC(C)Oc1cc2c(OC[C@@H]3CC(F)(F)C(=O)N3)ncc(C#CC3(O)CCN(C(=O)OC(C)(C)C)CC3)c2cc1C(N)=O` [US20230391748, Compound I-52] came in with an IC50 of 18.3 nM.
Under `CC(C)Oc1cc2c(O[C@@H]3CCCNC3)ncc(C#CC3(O)CCCC3)c2cc1C(N)=O` [US20230391748, Compound I-85] stands 35 nM.
